We go through two compounds from PMC5761213 (Journal of Pharmaceutical Analysis, 2014).

Each structure is given as a SMILES string. Like-named read-outs stand apart in the source and are kept apart here.

The target of one data set is T1, CYP1A2 (Homo sapiens, UniProt P05177).
T1 sequence (P05177 1-516): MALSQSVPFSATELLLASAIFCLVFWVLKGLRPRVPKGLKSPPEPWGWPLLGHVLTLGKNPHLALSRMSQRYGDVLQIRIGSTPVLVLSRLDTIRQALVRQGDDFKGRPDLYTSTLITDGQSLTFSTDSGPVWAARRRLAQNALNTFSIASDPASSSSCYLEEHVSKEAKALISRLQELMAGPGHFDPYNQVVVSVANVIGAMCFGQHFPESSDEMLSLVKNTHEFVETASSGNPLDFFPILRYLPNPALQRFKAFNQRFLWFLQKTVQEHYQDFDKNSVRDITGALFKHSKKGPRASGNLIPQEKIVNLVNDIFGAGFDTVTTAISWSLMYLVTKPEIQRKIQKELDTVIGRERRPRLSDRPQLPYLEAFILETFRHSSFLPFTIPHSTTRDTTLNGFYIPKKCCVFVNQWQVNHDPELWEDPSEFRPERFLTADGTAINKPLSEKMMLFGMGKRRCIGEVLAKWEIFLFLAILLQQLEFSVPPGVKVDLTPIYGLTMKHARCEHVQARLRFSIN
Briefly: Effect of DMSO on CYP activity in human liver microsomes. In kind it is in vitro ADME. A general note: Liver microsomes are a subcellular fraction often used to study metabolism.

In another data set the target is CYP3A4 (Homo sapiens, UniProt P08684). Described as above. The settings on record: for activity loss: percent decrease of metabolite formation. In kind it is in vitro ADME.
Sequence of CYP3A4 (P08684 whole entry): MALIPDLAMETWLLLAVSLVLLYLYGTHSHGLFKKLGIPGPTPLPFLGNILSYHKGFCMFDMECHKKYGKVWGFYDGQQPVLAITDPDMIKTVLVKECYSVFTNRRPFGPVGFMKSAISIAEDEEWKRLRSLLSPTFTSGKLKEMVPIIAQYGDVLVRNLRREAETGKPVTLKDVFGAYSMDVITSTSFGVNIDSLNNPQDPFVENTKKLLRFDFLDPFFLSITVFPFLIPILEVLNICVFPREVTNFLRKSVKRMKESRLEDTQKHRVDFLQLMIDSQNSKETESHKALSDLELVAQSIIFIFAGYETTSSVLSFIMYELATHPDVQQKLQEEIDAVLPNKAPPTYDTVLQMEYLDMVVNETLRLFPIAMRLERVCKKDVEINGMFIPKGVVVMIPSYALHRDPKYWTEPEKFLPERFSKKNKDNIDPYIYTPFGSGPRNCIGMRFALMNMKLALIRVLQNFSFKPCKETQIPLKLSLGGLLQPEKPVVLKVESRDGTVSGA
In data set [1] the target is T2, CYP2C19 (Homo sapiens, UniProt P33261). Described as above. In kind it is in vitro ADME. Conditions: for activity loss: percent decrease of metabolite formation.
T2 sequence (P33261 whole entry): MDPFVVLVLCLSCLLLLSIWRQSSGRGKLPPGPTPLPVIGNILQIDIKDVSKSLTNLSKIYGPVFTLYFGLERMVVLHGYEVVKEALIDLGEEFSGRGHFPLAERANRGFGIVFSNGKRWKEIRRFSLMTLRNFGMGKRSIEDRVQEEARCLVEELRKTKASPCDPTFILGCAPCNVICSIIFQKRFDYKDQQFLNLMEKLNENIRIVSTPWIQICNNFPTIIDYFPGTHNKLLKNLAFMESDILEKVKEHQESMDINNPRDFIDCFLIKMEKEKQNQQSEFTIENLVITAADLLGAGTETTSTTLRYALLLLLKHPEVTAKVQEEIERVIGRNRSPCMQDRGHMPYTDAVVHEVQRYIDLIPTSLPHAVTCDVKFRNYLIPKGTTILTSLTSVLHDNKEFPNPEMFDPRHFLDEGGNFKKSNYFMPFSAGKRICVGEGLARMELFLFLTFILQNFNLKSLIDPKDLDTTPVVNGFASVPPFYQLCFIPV
Another data set concerns the target T3, CYP2C8 (Homo sapiens, UniProt P10632).
T3 sequence (P10632 1-490): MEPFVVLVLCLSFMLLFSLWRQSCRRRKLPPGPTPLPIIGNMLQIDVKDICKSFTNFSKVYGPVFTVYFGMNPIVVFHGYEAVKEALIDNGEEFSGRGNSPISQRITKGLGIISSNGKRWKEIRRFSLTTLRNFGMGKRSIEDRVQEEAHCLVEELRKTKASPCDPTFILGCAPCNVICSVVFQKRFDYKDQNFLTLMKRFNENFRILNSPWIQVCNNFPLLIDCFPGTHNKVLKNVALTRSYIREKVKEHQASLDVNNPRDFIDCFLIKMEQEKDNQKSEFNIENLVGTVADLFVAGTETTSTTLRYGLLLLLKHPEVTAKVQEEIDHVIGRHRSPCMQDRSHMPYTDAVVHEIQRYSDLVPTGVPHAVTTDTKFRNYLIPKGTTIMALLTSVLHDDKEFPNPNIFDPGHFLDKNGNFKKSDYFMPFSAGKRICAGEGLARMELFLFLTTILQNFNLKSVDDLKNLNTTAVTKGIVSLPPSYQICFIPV
The data set is described as above. In kind it is in vitro ADME.

A further data set addresses CYP2D6 (Homo sapiens, UniProt P10635). Described as above. In kind it is in vitro ADME.
The target of data set [2] is T2, CYP2C19. As to the kind of experiment: CYP inhibition assay in human liver microsomes, S-mephenytoin probe. In kind it is in vitro ADME. Conditions: IC50 calculated without SC, Single, pooled human liver microsomes, analyte-to-IS peak area ratio.
The target of data set [3] is T2, CYP2C19. The settings on record: literature value, cited from earlier work.
Setting [4] is: 0.5% DMSO, concentration set for the cocktail assay.

Sequence of CYP2D6 (P10635 whole entry): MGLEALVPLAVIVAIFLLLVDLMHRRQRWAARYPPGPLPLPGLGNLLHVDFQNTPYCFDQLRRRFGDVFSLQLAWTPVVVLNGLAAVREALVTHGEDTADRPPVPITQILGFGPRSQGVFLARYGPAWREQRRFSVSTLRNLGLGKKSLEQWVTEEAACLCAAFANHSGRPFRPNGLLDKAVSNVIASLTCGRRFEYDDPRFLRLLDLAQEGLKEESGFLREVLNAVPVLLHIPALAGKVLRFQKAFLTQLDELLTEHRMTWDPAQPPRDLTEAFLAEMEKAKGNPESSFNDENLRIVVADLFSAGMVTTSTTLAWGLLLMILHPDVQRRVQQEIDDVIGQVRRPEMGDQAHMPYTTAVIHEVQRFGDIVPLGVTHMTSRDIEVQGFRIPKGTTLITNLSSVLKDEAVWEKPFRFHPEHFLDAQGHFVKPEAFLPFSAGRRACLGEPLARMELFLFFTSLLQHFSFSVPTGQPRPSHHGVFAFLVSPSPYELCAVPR

With `C[S+](C)[O-]` [DMSO], the “reduction of metabolite formation” value on CYP1A2 (0.1% DMSO), at CYP3A4 (0.1% DMSO), at CYP2C19 [1] (0.1% DMSO), at CYP2C8 (0.1% DMSO) and at CYP2D6 (0.1% DMSO) was “no significant reduction” each time. The “CYP activity reduced by” value at CYP1A2 (setting [4]) came to 8%; at CYP2C19 [1] (setting [4]), 44%; on CYP2C8 (setting [4]) it was 11%; on CYP2D6 (setting [4]) it was 12%. Also, the “effect of DMSO on CYP activity” value on CYP1A2 (DMSO up to 1%) and at CYP2C8 (DMSO up to 1%) was “not significantly affected” throughout. Also, the activity loss is given as 24.4% on CYP3A4 (0.5% DMSO (v/v)); 52.7% on CYP3A4 (1% DMSO (v/v)); 44.8% on CYP2C19 [1] (0.5% DMSO (v/v)); 55.0% at CYP2C19 [1] (1% DMSO (v/v)); 27.8% on CYP2D6 (1% DMSO (v/v), percent decrease of metabolite formation).

Take `C=C(C)[C@@H]1CCC2=CC(=O)C[C@@H](C)[C@]2(C)C1` [Nootkatone]: the IC50 at CYP2C19 [2] was 7.19 µM; at CYP2C19 [3] (read-out: reported IC50), 9.56 µM. In addition, the Ki on CYP2C19 [3] (read-out: reported Ki) is 0.5 µM.

A word on the IC50: it is the concentration that inhibits the measured activity by half. The term Ki denotes the dissociation constant of the complex between target and ligand, obtained from inhibition or displacement.
